Patent US7741124B2, “Detection procedures for fibrinogen and/or fibrinogen derivatives” (priority 2003, dated 2010)

Columns and labels:
Assay type in all cases: biochemical
[1] = biological target: T1, fibrinogen in human plasma (Homo sapiens, UniProt P02671+P02675+P02679); assay: Inactivation of fibrinogen by vancomycin or chloramine-T (FIFTA read-out)
T1 construct: 200 μl of 256% of norm active fibrinogen in P-Pool; from tissue; host or cells: pooled citrated human patient plasma (P-Pool / Fbgen-Pool)
T1 sequence (P02671 20-629 isoform P02671-2 limits assumed): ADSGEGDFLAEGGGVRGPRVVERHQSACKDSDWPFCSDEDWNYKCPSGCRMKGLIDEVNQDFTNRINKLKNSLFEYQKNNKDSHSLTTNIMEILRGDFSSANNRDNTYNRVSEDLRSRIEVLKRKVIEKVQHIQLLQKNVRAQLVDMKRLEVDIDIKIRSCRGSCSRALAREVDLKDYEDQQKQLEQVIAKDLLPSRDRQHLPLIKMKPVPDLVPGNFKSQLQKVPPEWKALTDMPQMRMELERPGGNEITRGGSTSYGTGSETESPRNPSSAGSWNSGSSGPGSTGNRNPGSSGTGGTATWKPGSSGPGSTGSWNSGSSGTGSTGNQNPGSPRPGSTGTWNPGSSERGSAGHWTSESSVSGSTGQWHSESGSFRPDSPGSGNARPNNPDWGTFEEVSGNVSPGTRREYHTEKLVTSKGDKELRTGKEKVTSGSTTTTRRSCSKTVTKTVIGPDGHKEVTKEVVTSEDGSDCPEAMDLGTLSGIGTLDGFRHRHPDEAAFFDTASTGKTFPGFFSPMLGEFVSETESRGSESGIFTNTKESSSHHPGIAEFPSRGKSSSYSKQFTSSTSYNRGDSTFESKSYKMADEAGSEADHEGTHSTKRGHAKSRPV
T1 sequence (P02675 31-491): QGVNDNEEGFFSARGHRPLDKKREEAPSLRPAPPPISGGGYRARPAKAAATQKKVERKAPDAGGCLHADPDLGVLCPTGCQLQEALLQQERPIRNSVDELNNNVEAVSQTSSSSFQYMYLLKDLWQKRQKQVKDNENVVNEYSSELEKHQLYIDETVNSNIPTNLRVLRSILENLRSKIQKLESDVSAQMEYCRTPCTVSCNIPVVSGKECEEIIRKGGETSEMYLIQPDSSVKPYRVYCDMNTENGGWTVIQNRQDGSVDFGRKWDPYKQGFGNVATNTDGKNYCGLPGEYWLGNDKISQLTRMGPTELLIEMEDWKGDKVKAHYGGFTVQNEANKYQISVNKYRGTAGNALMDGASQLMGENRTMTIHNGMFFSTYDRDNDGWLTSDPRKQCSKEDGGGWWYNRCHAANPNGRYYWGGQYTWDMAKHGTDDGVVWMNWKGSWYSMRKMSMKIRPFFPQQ
T1 sequence (P02679 27-437 isoform P02679-2 limits assumed): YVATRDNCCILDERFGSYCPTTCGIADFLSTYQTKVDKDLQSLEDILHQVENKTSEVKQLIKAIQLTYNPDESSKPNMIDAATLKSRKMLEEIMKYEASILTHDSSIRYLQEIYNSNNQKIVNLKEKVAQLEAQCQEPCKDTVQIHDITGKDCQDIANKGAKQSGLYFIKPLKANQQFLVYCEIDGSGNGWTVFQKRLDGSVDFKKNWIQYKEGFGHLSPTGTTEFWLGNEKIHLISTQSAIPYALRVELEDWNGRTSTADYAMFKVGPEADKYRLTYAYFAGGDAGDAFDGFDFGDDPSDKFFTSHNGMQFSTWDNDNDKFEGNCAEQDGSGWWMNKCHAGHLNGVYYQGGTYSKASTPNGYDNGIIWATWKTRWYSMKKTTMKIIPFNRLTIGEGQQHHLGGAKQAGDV
Experimental: 200 μl of 256% of norm active fibrinogen in P-Pool were incubated with 25 μl 0-100 mM vancomycin or 0-100 mM chloramine-T® in aqua dest. for 15 min (37° C.). 50 μl samples of these reaction mixtures were withdrawn and incubated with 100 μl 200 mIU/ml thrombin, 400 μg/ml Polybrene®, 6% BSA-PBS. The results were standardized by simultaneous analysis of 144% of norm active fibrinogen in P-Pool.

[2] = system: β2 fraction (fibrinogen) of plasma; assay: Electrophoresis of plasma that had been incubated with vancomycin
Experimental: 950 μl P-Pool were incubated with 50 μl 0-200 mM (0-10 mM final conc.) vancomycin for 5 min (RT). Then electrophoreses of the samples and of the solubilized precipitate of 2.10. were performed and the total protein concentrations in the treated samples were determined.

t-PA = assay: Stimulation of t-PA by vancomycin-precipitated plasma, plasma system
Experimental: 25 μl P-Pool were incubated with 25 μl 0-50 mM vancomycin in PBS and 50 μl 1000 IU/ml t-PA in PBS, 0.1% Triton X 100® and 25 μl 0 mM or 15 mM chloramine-T® for 30 min (RT). Then 25 μl 2.7 mM Vai-Leu-Lys-pNA, 1.7 M KCl were added and the resulting plasmin activity was determined by measuring linear absorbance increase/min RT in a microtiterplate reader.

SMILES: CN[C@H](CC(C)C)C(=O)N[C@H]1C(=O)N[C@@H](CC(N)=O)C(=O)N[C@H]2C(=O)N[C@H]3C(=O)N[C@H](C(=O)N[C@H](C(=O)O)c4cc(O)cc(O)c4-c4cc3ccc4O)[C@H](O)c3ccc(c(Cl)c3)Oc3cc2cc(c3O[C@@H]2O[C@H](CO)[C@@H](O)[C@H](O)[C@H]2O[C@H]2C[C@](C)(N)[C@H](O)[C@H](C)O2)Oc2ccc(cc2Cl)[C@H]1O [vancomycin]
- IC50 [1]: ~1000 µM
- β2 fraction ([2]; 0.29 mM vancomycin): 10.6%
- β2 fraction ([2]; 0.44 mM vancomycin): 10.4%
- β2 fraction ([2]; 0.66 mM vancomycin): 8.0%
- β2 fraction ([2]; 0.99 mM vancomycin): 6.4%
- β2 fraction ([2]; 1.48 mM vancomycin): 5.2%
- β2 fraction ([2]; 2.22 mM vancomycin): 5.5%
- β2 fraction ([2]; 5 mM vancomycin): 0%
- β2 fraction ([2]; 10 mM vancomycin): 0%
- stimulation of t-PA (t-PA; 1 part plasma with 1 part 1.5-5 mM vancomycin, oxidation with 1 part 15 mM chloramine-T): up to 20 fold
- increase of t-PA activity (t-PA; without oxidation, 2 mM vancomycin, final incubation 158 min (RT)): 2.5 fold
